Consider six molecules from PMC7217877, “N-AS-triggered SPMs are direct regulators of microglia in a model of Alzheimer’s disease” (Nature Communications, 2020).

Assay [1] has as its target T1, COX2 WT (Homo sapiens, UniProt P35354).
T1 construct: His (N); made in house
T1 sequence (P35354 18-604): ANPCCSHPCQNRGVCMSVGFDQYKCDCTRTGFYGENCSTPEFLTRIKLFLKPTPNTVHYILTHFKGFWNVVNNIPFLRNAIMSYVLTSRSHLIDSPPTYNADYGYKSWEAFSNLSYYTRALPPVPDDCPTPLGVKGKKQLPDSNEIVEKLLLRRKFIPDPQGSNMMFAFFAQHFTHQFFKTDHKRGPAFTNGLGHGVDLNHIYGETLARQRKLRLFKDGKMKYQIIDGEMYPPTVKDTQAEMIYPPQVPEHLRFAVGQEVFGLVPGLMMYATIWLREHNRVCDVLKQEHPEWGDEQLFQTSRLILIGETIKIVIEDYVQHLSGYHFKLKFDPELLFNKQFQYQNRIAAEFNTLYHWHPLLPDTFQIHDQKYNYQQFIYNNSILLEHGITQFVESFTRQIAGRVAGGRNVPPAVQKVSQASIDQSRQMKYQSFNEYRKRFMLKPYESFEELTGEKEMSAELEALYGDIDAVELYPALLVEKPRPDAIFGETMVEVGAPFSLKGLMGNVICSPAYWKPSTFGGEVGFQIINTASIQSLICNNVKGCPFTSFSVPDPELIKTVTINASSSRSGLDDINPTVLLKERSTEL
Briefly: in vitro [14C] acetylation assay of purified COX2. It counts as biochemical. The settings on record: purified COX2 + 14C-labelled acetyl donor, 2 h, 37 °C, scintillation counter, replicates, in cpm (unit assumed).

Assay [2] deals with neuron. Kind of assay: quantification of 15R-LXA4, RvE1, RvD1 in primary cells (LC-MS/MS). It counts as cell-based, C57BL/6 mice. Set-up: unit not given here. The following applies: replicates. Here is the method: Lipid mediators metabololipidomics were performed according to previously described procedures with minor modifications[4],[30]. To confirm the biosynthesis of lipid mediators by recombinant COX2 treated with N-AS or aspirin, 10 U of human recombinant COX2 (Cayman, 60122) was incubated in the presence of 500 μM aspirin (Sigma-Aldrich, A5376) or N-AS (Sigma-Aldrich, 01912) at 37 °C for 30 min. The enzyme was filtered with a Microcon column (Millipore) to remove unreacted aspirin or N-AS and was then resuspended in 0.1 M Tris-HCl (pH 8.0). Next, 500 μM phenol (Sigma-Aldrich) and 1 μM hematin-porcine (Sigma-Aldrich) were added immediately before incubation with 100 μM AA, EPA or DHA (Cayman) at 37 °C for 2 h, respectively. The mixtures were incubated with 30 U of human 5-LOX (Cayman, 60402) containing 2 mM CaCl2 (Sigma-Aldrich), 1 mM ATP (Amresco) and 5 μM 13-HpODE (Cayman) as activators. Also, to validate the importance of residue S565 for N-AS-acetylation of COX2 and production of SPMs, 10 U of the COX2 S565A mutant was used in the above-described method. In addition, to confirm SPM generation in neurons and microglia, these cells were treated with Aβ and sonicated in neuronal and glial culture medium. […] To evaluate the relationship of N-AS and SPM production in microglia, microglia were isolated from WT, APP/PS1, and APP/PS1 treated with N-AS mice at 9 months of age. The microglia were sonicated and resuspended in microglial culture medium. The supernatants were incubated with 100 μM AA, EPA, and DHA (Cayman) at 37 °C for 2 h. A 50 μl aliquot of the mixture from each cell lysate was added to a 250 μl aliquot of 1 ng ml^−1 of 15S-LXA4-d5 (internal standard, Cayman) methanol solution. After vortexing for 10 min and centrifuging at 15,974×g for 5 min, the supernatant was subjected to the analysis of the lipid mediators using an Agilent 6470 Triple Quad LC-MS/MS system (Agilent) coupled to an Agilent 1290 HPLC system. Chromatographic separation was achieved using a Synergi Polar RP (4 μm, 2.0 mm i.d. × 150 mm, Phenomenex). Analytes were eluted with a mobile phase consisting of water: formic acid (100:0.1 v/v) (phase A) and methanol: formic acid (100:0.1 v/v) (phase B) in gradient elution mode for 23 min a flow rate of 0.2 ml min^−1. The elution gradient was as follows: from 0 to 0.1 min the content of phase A was 37% and the content of phase A was decreased to 10% and maintained for 5.5 min. The content of phase A was increased back to 37% at 6.0 min and maintained for 23 min. Quantification was carried out using MRM in negative ionization mode and collision energy of 10–15 eV. The mass transition from Q1 to Q3 is shown in Supplementary Table 2. In this study, the peak areas for all components were automatically integrated using MassHunter B 06.00.
To confirm the generation and roles of N-AS in neurons, cells from E18 C57BL/6 mice were prepared as previously described. Cortices were dissected and then dissociated followed by incubation in papain (Worthington) at 37 °C for 15 min. Neurons were plated on poly-L-lysine-coated coverslips with neuronal culture medium, serum-free Neurobasal medium (Gibco) containing 2% B27 supplements (Gibco), 1 mM Glutamax supplement (Gibco), and 100 U ml^−1 streptomycin/ 100 U ml^−1 penicillin (Gibco) at 37 °C in a humidified atmosphere of 5% CO2. […] Primary astrocyte cultures were prepared from C57BL/6 mice as described previously. In brief, after removal of the meninges, postnatal day 7 (P7) mouse brain tissues were minced and incubated in a rocking water bath at 37 °C for 30 min in the presence of 0.25% trypsin-EDTA (Sigma-Aldrich). Enzyme-digested dissociated cells were triturated with astrocyte-specific medium (DMEM/F12 containing 10% FBS and 1% penicillin-streptomycin) and centrifuged at 155×g for 8 min. The pellet was resuspended in astrocyte-specific medium and passed through a 40-μm cell strainer. […]

Values joined by “and” are separate entries in the source; they are usually repeats but may differ in a detail not shown here. Equal values may be shown once.

Regarding `CC(=O)Oc1ccccc1C(=O)O` [Aspirin, acetylsalicylic acid, reference compound], in assay [1] (listed as C14 Aspirin), the “C14 radioactivity of COX2, acetylation assay (Fig 1b)” value (“C14 radioactivity of COX2” for short) was 16445 and 14504 and 14566 and 16561 and 14595 and 14332 and 14859.

For `CC(=O)SCCNC(=O)CCNC(=O)[C@H](O)C(C)(C)COP(=O)(O)OP(=O)(O)OC[C@H]1O[C@@H](n2cnc3c(N)ncnc32)[C@H](O)[C@@H]1OP(=O)(O)O` [Acetyl-CoA, acetyl-CoA], in assay [2] (Ab + supplement), the “15R-LxA4 (Fig 3i)” value is 0.02549 and 0.02793 and 0.0321 and 0.02233 and 0.02865 and 0.02722; the “RvD1 (Fig 3i)” value is 0.01313 and 0.01214 and 0.01403 and 0.01264 and 0.01308 and 0.01333; the “RvE1 (Fig 3i)” value is 0.01432 and 0.01422 and 0.01286 and 0.01427 and 0.01354 and 0.01357. The “C14 radioactivity of COX2” value in assay [1] (listed as C14 Acetyl CoA) is 4565 and 4620 and 4766 and 3817.

For “Ab: Aβ 1–42 (Invitrogen, 03112) used to induce an AD environment in cells”, in assay [2] (Ab, no supplement), the “15R-LxA4 (Fig 3i)” value is 0.02346 and 0.02267 and 0.02051 and 0.02367 and 0.02325 and 0.02209; the “RvD1 (Fig 3i)” value is 0.01315 and 0.01104 and 0.01107 and 0.0121 and 0.01106 and 0.01158; the “RvE1 (Fig 3i)” value is 0.0152 and 0.01424 and 0.01723 and 0.01472 and 0.01573 and 0.01598.

Turning to `CCCCCCCCCCCCC/C=C/[C@@H](O)[C@H](CO)NC(C)=O` [N-AS, N-((2S,3R,E)-1,3-Dihydroxyoctadec-4-en-2-yl)acetamide], in assay [2] (Ab + supplement), the “15R-LxA4 (Fig 3i)” value is 3.35 and 3.4991 and 3.7074 and 3.111 and 3.589 and 3.409; the “RvD1 (Fig 3i)” value is 0.555 and 0.7676 and 0.6961 and 0.6613 and 0.7318 and 0.6787; the “RvE1 (Fig 3i)” value is 3.2 and 3.853 and 3.712 and 3.527 and 3.7827 and 3.619. Further, the “C14 radioactivity of COX2” value in assay [1] (listed as C14 N-AS) was 347557 and 414691 and 285538 and 348458 and 418276 and 416508 and 283195.

With `CCCCCCCCCCCCC/C=C/[C@@H](O)[C@@H](N)CO` [Sph, sphingosine], in assay [2] (Ab + supplement), the “15R-LxA4 (Fig 3i)” value was 0.02593 and 0.02461 and 0.02134 and 0.02662 and 0.02525 and 0.02398; the “RvD1 (Fig 3i)” value is 0.01101 and 0.01211 and 0.01321 and 0.01156 and 0.01266 and 0.01239; the “RvE1 (Fig 3i)” value was 0.01121 and 0.01127 and 0.01125 (2×) and 0.01124 and 0.01126.

B1: Sphk1: purified sphingosine kinase1 enzyme (Cayman, 10348) supplemented to cell lysates (protein, UniProt Q9NYA1 1-384, looked up)
Sphingosine kinase 1: MDPAGGPRGVLPRPCRVLVLLNPRGGKGKALQLFRSHVQPLLAEAEISFTLMLTERRNHARELVRSEELGRWDALVVMSGDGLMHEVVNGLMERPDWETAIQKPLCSLPAGSGNALAASLNHYAGYEQVTNEDLLTNCTLLLCRRLLSPMNLLSLHTASGLRLFSVLSLAWGFIADVDLESEKYRRLGEMRFTLGTFLRLAALRTYRGRLAYLPVGRVGSKTPASPVVVQQGPVDAHLVPLEEPVPSHWTVVPDEDFVLVLALLHSHLGSEMFAAPMGRCAAGVMHLFYVRAGVSRAMLLRLFLAMEKGRHMEYECPYLVYVPVVAFRLEPKDGKGVFAVDGELMVSEAVQGQVHPNYFWMVSGCVEPPPSWKPQQMPPPEEPL
With B1, in assay [2] (Ab + supplement), the “15R-LxA4 (Fig 3i)” value is 3.266 and 3.3679 and 3.485 and 3.078 and 3.454 and 3.282; the “RvD1 (Fig 3i)” value is 0.5366 and 0.8616 and 0.7359 and 0.6991 and 0.7987 and 0.7175; the “RvE1 (Fig 3i)” value was 3.815 and 3.7466 and 3.98 and 3.781 and 3.863 and 3.88.
